Assay results from patent US6448261B1, “Arylamino fused pyridines” (Bristol-Myers Squibb Pharma Company, priority 1996, dated 2002).

melting point [°C] | Structure (SMILES)
67 to 69 | COC[C@H](Cc1ccccc1)n1nnc2c(Nc3ccc(C(C)C)cc3Br)nc(C)nc21 [Example 11, (S)-N-[2-bromo-4-(1-methylethyl)phenyl]-3-[1-(1-methoxymethyl)-2-phenylethyl]-5-methyl-3H-1,2,3-triazolo[4,5-d]pyrimidin-7-amine]
141 to 142 | CCCC(CCC)n1nnc2c(Nc3c(C)cc(C)cc3Br)nc(C)nc21 [Example 21, N-(2-bromo-4,6-dimethylphenyl)-5-methyl-3-[1-propylbutyl]-3H-1,2,3-triazolo[4,5-d]pyrimidin-7-amine]
149 to 150 | CCC(COC)n1nnc2c(Nc3c(Cl)cc(OC)cc3OC)nc(C)nc21 (racemic) [Example 31, (+/−)-N-(2-chloro-4,6-dimethoxyphenyl)-3-[1-(1-methoxymethyl)propyl]-5-methyl-3H-1,2,3-triazolo[4,5-d]pyrimidin-7-amine]
170.5 to 172 | CCCC(CC)n1nnc2c(Nc3c(C)cc(C)cc3C)nc(C)nc21 (racemic) [Example 35, (+/−)-3-[1-(1-ethyl)butyl]-5-methyl-N-(2,4,6-trimethylphenyl)-3H-1,2,3-triazolo[4,5-d]pyrimidin-7-amine]
153 to 154 | CCC(CC)n1nnc2c(Nc3ccc(C(C)=O)cc3Br)nc(C)nc21 [Example 26, N-(4-acetyl-2-bromophenyl)-3-[1-ethylpropyl]-5-methyl-3H-1,2,3-triazolo[4,5-d]pyrimidin-7-amine]
73 to 74 | CCCCC(CC)n1nnc2c(Nc3ccc(C(C)C)cc3Br)nc(C)cc21 (racemic) [Example 226, (+/−)-N-[2-bromo-4-(1-methylethyl)phenyl]-1-(1-ethylpentyl)-6-methyl-1H-1,2,3-triazolo[4,5-c]pyridin-4-amine]
137 to 138 | CCCCC(CC)n1nnc2c(Nc3ccc(C(C)C)cc3Br)nc(C)nc21 (racemic) [Example 13, (+/−)-N-[2-bromo-4-(1-methylethyl)phenyl]-3-[1-ethylpentyl]-5-methyl-3H-1,2,3-triazolo[4,5-d]pyrimidin-7-amine]
144 to 145 | CCC(CC)n1nnc2c(Nc3ccc(C(C)C)cc3Br)nc(C)cc21 [Example 221, N-[2-bromo-4-(1-methylethyl)phenyl]-1-(1-ethylpropyl)-6-methyl-1H-1,2,3-triazolo[4,5-c]pyridin-4-amine]
127 to 128 | CCCCC(CC)n1nnc2c(Nc3c(Br)cc(OC)cc3OC)nc(C)cc21 (racemic) [Example 227, (+/−)-N-(2-bromo-4,6-dimethoxyphenyl)-1-(1-ethylpentyl)-6-methyl-1H-1,2,3-triazolo[4,5-c]pyridin-4-amine]
143 to 144.5 | CCCC(CCC)n1nnc2c(Nc3c(C)cc(C)cc3C)nc(C)nc21 [Example 37, 5-methyl-3-[1-(1-propyl)butyl]-N-(2,4,6-trimethylphenyl)-3H-1,2,3-triazolo[4,5-d]pyrimidin-7-amine]
166 to 167 | CCC(CC)n1nnc2c(Nc3c(Br)cc(OC)cc3OC)nc(C)cc21 [Example 222, N-(2-bromo-4,6-dimethoxyphenyl)-1-(1-ethylpropyl)-6-methyl-1H-1,2,3-triazolo[4,5-c]pyridin-4-amine]
132 to 133 | CCCCC(CCCC)n1nnc2c(Nc3ccc(C(C)C)cc3Br)nc(C)nc21 [Example 16, N-[2-bromo-4-(1-methylethyl)phenyl]-3-[1-butylpentyl]-5-methyl-3H-1,2,3-triazolo[4,5-d]pyrimidin-7-amine]
154 to 155 | CCC(COC)n1nnc2c(Nc3c(Br)cc(OC)cc3OC)nc(C)nc21 (racemic) [Example 30, (+/−)-N-(2-bromo-4,6-dimethoxyphenyl)-3-[1-(1-methoxymethyl)propyl]-5-methyl-3H-1,2,3-triazolo[4,5-d]pyrimidin-7-amine]
155 to 156 | CCCCC(CC)n1nnc2c(Nc3c(Cl)cc(OC)cc3OC)nc(C)cc21 (racemic) [Example 228, (+/−)-N-(2-chloro-4,6-dimethoxyphenyl)-1-(1-ethylpentyl)-6-methyl-1H-1,2,3-triazolo[4,5-c]pyridin-4-amine]
171.5 to 173.5 | COCCn1nnc2c(Nc3c(C)cc(C)cc3C)nc(C)nc21 [Example 38, 3-(2-methoxyethyl)-5-methyl-N-(2,4,6-trimethylphenyl)-3H-1,2,3-triazolo[4,5-d]pyrimidin-7-amine]
94 to 95 | COCCn1nnc2c(Nc3ccc(C(C)C)cc3Br)nc(C)nc21 [Example 6, N-[2-bromo-4-(1-methylethyl)phenyl]-3-(2-methoxyethyl)-5-methyl-3H-1,2,3-triazolo[4,5-d]pyrimidin-7-amine]
160 to 162 | CCC(CC)n1nnc2c(Nc3c(C)cc(C)cc3C)nc(C)nc21 [Example 34, 3-[1-(1-ethyl)propyl]-5-methyl-N-(2,4,6-trimethylphenyl)-3H-1,2,3-triazolo[4,5-d]pyrimidin-7-amine]
144.5 to 146 | CCC(COC)n1nnc2c(Nc3ccc(Br)cc3C)nc(C)nc21 (racemic) [Example 42, (+/−)-N-(4-bromo-2-methylphenyl)-3-[1-(1-methoxymethyl)propyl]-5-methyl-3H-1,2,3-triazolo[4,5-d]pyrimidin-7-amine]
126.5 to 128 | CCCC(CCC)n1nnc2c(Nc3ccc(Br)cc3C)nc(C)nc21 [Example 40, N-(2-Methyl-4-bromophenyl)-3-[1-(1-propyl)butyl]-5-methyl-3H-1,2,3-triazolo[4,5-d]pyrimidin-7-amine]
80 to 81 | CCCn1nnc2c(Nc3ccc(C(C)C)cc3Br)nc(C)nc21 [Example 1, N-[2-bromo-4-(1-methylethyl)phenyl]-5-methyl-3-propyl-3H-1,2,3-triazolo[4,5-d]pyrimidin-7-amine]
154 to 155 | CCCC(CC)n1nnc2c(Nc3ccc(C(C)C)cc3Br)nc(C)nc21 (racemic) [Example 17, (+/−)-N-[2-bromo-4-(1-methylethyl)phenyl]-3-[1-ethylbutyl]-5-methyl-3H-1,2,3-triazolo[4,5-d]pyrimidin-7-amine]
133 to 134 | CCC(COC)n1nnc2c(Nc3ccc(C(C)=O)cc3Br)nc(C)nc21 (racemic) [Example 27, (+/−)-N-(4-acetyl-2-bromophenyl)-3-[1-(1-methoxymethyl)propyl]-5-methyl-3H-1,2,3-triazolo[4,5-d]pyrimidin-7-amine]
140 to 141 | CCCC(CCC)n1nnc2c(Nc3c(Br)cc(OC)cc3OC)nc(C)cc21 [Example 224, N-(2-bromo-4,6-dimethoxyphenyl)-6-methyl-1-(1-propylbutyl)-1H-1,2,3-triazolo[4,5-c]pyridin-4-amine]
171 to 172 | CCC(CC)n1nnc2c(Nc3ccc(C(C)C)cc3Br)nc(C)nc21 [Example 19, N-[2-bromo-4-(1-methylethyl)phenyl]-3-[1-ethylpropyl]-5-methyl-3H-1,2,3-triazolo[4,5-d]pyrimidin-7-amine]
115 to 116 | CCC(COC)n1nnc2c(Nc3ccc(C(C)C)cc3Br)nc(C)nc21 (racemic) [Example 9, (+/−)-N-[2-bromo-4-(1-methylethyl)phenyl]-3-[1-(1-methoxymethyl)propyl]-5-methyl-3H-1,2,3-triazolo[4,5-d]pyrimidin-7-amine]
129 to 130.5 | CCCCC(CC)n1nnc2c(Nc3c(C)cc(C)cc3C)nc(C)nc21 (racemic) [Example 36, (+/−)-3-[1-(1-ethyl)pentyl]-5-methyl-N-(2,4,6-trimethylphenyl)-3H-1,2,3-triazolo[4,5-d]pyrimidine-7-amine]
69 to 70 | CCCC(CCC)n1nnc2c(Nc3ccc(C(C)C)cc3Br)nc(C)nc21 [Example 15, N-[2-bromo-4-(1-methylethyl)phenyl]-3-[1-propylbutyl]-5-methyl-3H-1,2,3-triazolo[4,5-d]pyrimidin-7-amine]
157 to 158 | CCCC(CCC)n1nnc2c(Nc3c(Cl)cc(OC)cc3OC)nc(C)cc21 [Example 225, N-(2-chloro-4,6-dimethoxyphenyl)-6-methyl-1-(1-propylbutyl)-1H-1,2,3-triazolo[4,5-c]pyridin-4-amine]
144.5 to 147 | CCC(COC)n1nnc2c(Nc3c(C)cc(C)cc3C)nc(C)nc21 (racemic) [Example 32, (+/−)-3-[1-(1-methoxymethyl)propyl]-5-methyl-N-(2,4,6-trimethylphenyl)-3H-1,2,3-triazolo[4,5-d]pyrimidin-7-amine]
